Experimental data: patent US20200155478A1, “XIBORNOL FOR USE IN THE TREATMENT OF ACNE VULGARIS” (ABIOGEN PHARMA S.P.A., priority 2017, published 2020)
Values after ≈ are worked out from the molar mass of the structure shown.

Tests used:
Propionibacterium acnes [1] = test: Determination of the minimum bactericidal concentration (MBC), inoculation on RCA plates; format: cell-based
Procedure: (§1) Two strains of Propionibacterium acnes were used for this test: the Grerath strain (ATCC-11827) and the VPI 0389 strain (ATCC-6919).
(§2) Clostridial differential broth (CDB, liquid medium) and reinforced clostridial agar (RCA, solid medium) were used for the culture. Growth occurred under anaerobic conditions obtained in a 7.0 L GENBOX JAR.
(§3) The anaerobic conditions were obtained by activating the Anaerocult A preparation and the anaerobiosis control was assessed by using ANAEROTEST strips for microbiology.
(§4) The Propionibacterium acnes was incubated at 37° C. for 72 hours.
To determine the minimum bactericidal concentration (MBC), 10 μl of solution was taken from each well on the above described plate and inoculated on RCA plates containing the same concentrations of xibornol in 4% isopropanol present in the wells of the plate.

[2] = Dissolution of xibornol in 4% isopropanol; format: physicochemical
Procedure: In order to perform the antimicrobial tests in aqueous solutions (broth and agar), said xibornol, a lipophilic molecule, was dissolved in a hydrophilic solvent, and more specifically in isopropanol.

[3] = tested on: inflammatory cytokine IL-8; test: Mouse model for Acne vulgaris induced by Propionibacterium acnes, IL-8 ELISA in ear homogenate supernatants; format: in vivo, Balb/c strain mice
Procedure: For the experiment, female Balb/c strain mice were used, grouped according to the experimental plan shown below in Table 5: [table] The sham group consisted of mice which received an intradermal injection, in each ear, of 25 μl of D-PBS (Dulbecco's phosphate buffered saline), while the other two groups consisted of mice which received an intradermal injection, in each ear, of 25 μl of D-PBS containing 10^8 CFU (colony-forming units) of Propionibacterium acnes. As of the day following the injection: • the sham group of mice was not treated; • the control group was treated, once a day, for 7 consecutive days, directly to the sites of inoculation of the bacterium, with a topical application of the formulation without active principle, i.e. with the carrier, consisting of three parts of paraffin oil and two parts of filamentary vaseline; • the […], once a day, for 7 consecutive days, directly to the sites of inoculation of the bacterium), with a topical application of the formulation containing xibornol in a concentration of 0.1% (corresponding to 0.79 mg/mL) in the carrier, consisting of three parts of paraffin oil and two parts of filamentary vaseline. The mice were sacrificed 24 hours after the last topical application. […]

[4] = tested on: RHE EPISKIN artificial epidermis; test: Skin irritation and sensitisation test (OECD TG 404), MTT viability; format: cell-based, human; settings: liquid formulations of xibornol, isopropanol and PBS buffer; 42' contact, assessed after 42 hours
Procedure: In order to establish the usable concentrations of xibornol in solution for the production of pharmaceutical forms intended for external topical use, a skin irritation and sensitisation test was carried out, according to standard OECD TG 404, method B.4, Annex V, Directive 67/548/EEC. A RHE EPISKIN artificial epidermis unit was used for the test. The kit consisted of 24 reconstructed epidermis units with a total area of 0.33 cm^2. Each unit consisted of a collagen matrix with a stratified, differentiated epidermis derived from human keratinocytes placed on top thereof. The substances to be tested were placed in contact (42′) with the epidermis and the effects assessed after 42 hours, incubating the units with MTT (3-(4,5-dimethylthiazol-2-yl)-2,5-diphenyltetrazolium bromide) which, under the experimental conditions, reduced to formazan upon contact with metabolically active cells, turning the coloured solution from yellow into blue. Since the obtained colour is directly proportional to the concentration of formazan, and therefore to the cell viability, after incubation with MTT for 3 hours, optical density readings were taken by using the spectrophotometer (DO 572-650 nm).

Propionibacterium acnes [5] = test: Determination of the minimum inhibitory concentration (MIC), 96-well broth plate, OD 600 nm and PrestoBlue; format: cell-based
Procedure: as §1, §2, §3, §4
Propionibacterium acnes strains were reactivated from ATCC vials, rehydrated with CDB medium, and then seeded on RCA plates.
To cultivate Propionibacterium acnes in broth, isolated colonies were taken from culture plates and inoculated in the CBD medium.
After culturing, the concentration of bacterial cells was normalised using the McFarland 0.5 standard.
A 96-well plate was prepared in order to establish the minimum inhibitory concentration; the xibornol was dissolved in a 4% isopropanol solution in various concentrations, and the samples were prepared according to the experimental plan shown in the following table 1.
All the wells in rows D, E, F and the first three wells from the left in row H contained Propionibacterium acnes at the final concentration of 5×10^5 bacteria/mL.
Row G (wells 1, 2, 3) was the negative control and contained only the culture medium, without bacteria, xibornol, or isopropanol.
Row H (wells 1,2,3) was the positive control and contained the bacterial culture without xibornol or isopropanol.
Unmarked wells were empty.
The reading of the plate, after an incubation under anaerobic conditions at 37° C., was performed after 72 hours.
A first spectrophotometer reading was taken, including measurement of the OD (optical density) at 600 nm.
To highlight the presence or absence of bacterial growth on the plate described above, PrestoBlue was also used, which is a resazurin-based solution which uses the reducing power of cells to measure cell proliferation. Said solution is blue and turns into red upon contact with live bacterial cells.
After having incubated the plate with the PrestoBlue and read the fluorescence values by using a Victor 3 Wallac microplate reader, the data were confirmed.

Structure (SMILES): Cc1cc(O)c(C2CC3CCC2(C)C3(C)C)cc1C (racemic) [xibornol, 4,5-dimethyl-2-[1,7,7-trimethylbicyclo[2.2.1]heptan-2-yl]phenol]
- minimum bactericidal concentration (MBC) (Propionibacterium acnes [1]; 10 μl from each well inoculated on RCA plates with the same xibornol concentrations in 4% isopropanol): 9.37 µg/mL (≈ 36.3 µM)
- MBC (Propionibacterium acnes [1]; Cutibacterium acnes, 10 μl from each well inoculated on RCA plates with the same xibornol concentrations in 4% isopropanol): 4.69 to 9.37 µg/mL (≈ 18.1 to 36.3 µM)
- growth on RCA plates (Propionibacterium acnes [1]; xibornol 4.69 μg/mL): massive growth, comparable to that of the positive control
- amount of xibornol dissolved by 4% isopropanol [2]: up to 1200 μg/mL
- Average concentration of IL-8 ([3]; 0.1% xibornol (0.79 mg/mL) in paraffin oil/vaseline carrier, topical once a day for 7 days, ear homogenate supernatant): 190.61 pg/mL
- change in IL-8 levels with respect to the control group ([3]; 0.1% xibornol topical, once a day for 7 days): significant reduction
- concentration of xibornol administrable topically without irritation or sensitisation of the epidermis [4]: less than 5 mg/mL
- concentration of xibornol administrable topically without irritation or sensitisation of the epidermis, even more preferably [4]: less than 2.5 mg/mL
- MIC (Propionibacterium acnes [5]; Cutibacterium acnes, ATCC 11827 / ATCC 6919, 72 h, strains ATCC-11827 and ATCC-6919, anaerobic, 37° C., 72 hours, xibornol racemate in 4% isopropanol): 4.69 to 9.37 µg/mL (≈ 18.1 to 36.3 µM)
- antibacterial efficacy compared with clindamycin (Propionibacterium acnes [5]; Propionibacterium acnes): comparable to that of clindamycin
- minimum inhibitory concentration (MIC) (Propionibacterium acnes [5]; strains ATCC-11827 and ATCC-6919, anaerobic, 37° C., 72 hours, xibornol racemate in 4% isopropanol): 9.37 µg/mL (≈ 36.3 µM)
- bacterial growth in wells (Propionibacterium acnes [5]; xibornol at 4.69 μg/mL, 2.34 μg/mL, 1.17 μg/mL, 72 hours, PrestoBlue red colour): bacterial growth was observed
